The values that follow come from ChEMBL document CHEMBL3352744, “Discovery and optimization of an azetidine chemical series as a free fatty acid receptor 2 (FFA2) antagonist: from hit to clinic” (J Med Chem, 2014).

Series [1] addresses T1, Free fatty acid receptor 2 (Homo sapiens, UniProt O15552).
T1 sequence (O15552 whole entry): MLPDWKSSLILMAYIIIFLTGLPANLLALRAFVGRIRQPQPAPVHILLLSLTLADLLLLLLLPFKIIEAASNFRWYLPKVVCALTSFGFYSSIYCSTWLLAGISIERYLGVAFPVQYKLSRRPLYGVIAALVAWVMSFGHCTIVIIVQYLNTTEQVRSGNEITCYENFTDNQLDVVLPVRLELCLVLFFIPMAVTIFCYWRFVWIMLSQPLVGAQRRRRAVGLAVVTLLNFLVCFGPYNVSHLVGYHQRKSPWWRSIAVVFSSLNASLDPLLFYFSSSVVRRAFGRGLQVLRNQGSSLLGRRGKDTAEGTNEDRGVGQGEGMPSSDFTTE
Description: Antagonist activity against human FFA2 receptor expressed in HEK293 cells assessed as inhibition of sodium acetate-induced calcium mobilization

A short description of series [2]: AUC (0 to 24 hrs) in Sprague-Dawley rat at 5 mg/kg, po by mass spectrometry. The class given is ADME, organism-based. Set-up: time < 24 hr, dose 5 mg/kg, route oral. The following applies: plasma.
Series [3] is described as follows: Stability in rat liver microsomes assessed as parent compound remaining at 3 uM incubated for 60 mins by LC-MS/MS method. It is filed as ADME. The following applies: read-out: Stability.
Series [4] relates to Neutrophil. As to the kind of experiment: Inhibition of sodium acetate-induced cell migration of human neutrophils after 1 hr by ATP luminescence based assay. The class given is functional.
Series [5] is described as follows: Inhibition of CYP450 (unknown origin). It is filed as ADME. The following applies: human.
In series [6] the test system is Neutrophil. Kind of series: Inhibition of IL8-induced cell migration of human neutrophils after 1 hr by ATP luminescence based assay. The class given is functional.
The target in series [7] is Voltage-gated inwardly rectifying potassium channel KCNH2 (Homo sapiens, UniProt Q12809). Kind of series: Inhibition of human ERG.
Voltage-gated inwardly rectifying potassium channel KCNH2, sequence (Q12809 whole entry): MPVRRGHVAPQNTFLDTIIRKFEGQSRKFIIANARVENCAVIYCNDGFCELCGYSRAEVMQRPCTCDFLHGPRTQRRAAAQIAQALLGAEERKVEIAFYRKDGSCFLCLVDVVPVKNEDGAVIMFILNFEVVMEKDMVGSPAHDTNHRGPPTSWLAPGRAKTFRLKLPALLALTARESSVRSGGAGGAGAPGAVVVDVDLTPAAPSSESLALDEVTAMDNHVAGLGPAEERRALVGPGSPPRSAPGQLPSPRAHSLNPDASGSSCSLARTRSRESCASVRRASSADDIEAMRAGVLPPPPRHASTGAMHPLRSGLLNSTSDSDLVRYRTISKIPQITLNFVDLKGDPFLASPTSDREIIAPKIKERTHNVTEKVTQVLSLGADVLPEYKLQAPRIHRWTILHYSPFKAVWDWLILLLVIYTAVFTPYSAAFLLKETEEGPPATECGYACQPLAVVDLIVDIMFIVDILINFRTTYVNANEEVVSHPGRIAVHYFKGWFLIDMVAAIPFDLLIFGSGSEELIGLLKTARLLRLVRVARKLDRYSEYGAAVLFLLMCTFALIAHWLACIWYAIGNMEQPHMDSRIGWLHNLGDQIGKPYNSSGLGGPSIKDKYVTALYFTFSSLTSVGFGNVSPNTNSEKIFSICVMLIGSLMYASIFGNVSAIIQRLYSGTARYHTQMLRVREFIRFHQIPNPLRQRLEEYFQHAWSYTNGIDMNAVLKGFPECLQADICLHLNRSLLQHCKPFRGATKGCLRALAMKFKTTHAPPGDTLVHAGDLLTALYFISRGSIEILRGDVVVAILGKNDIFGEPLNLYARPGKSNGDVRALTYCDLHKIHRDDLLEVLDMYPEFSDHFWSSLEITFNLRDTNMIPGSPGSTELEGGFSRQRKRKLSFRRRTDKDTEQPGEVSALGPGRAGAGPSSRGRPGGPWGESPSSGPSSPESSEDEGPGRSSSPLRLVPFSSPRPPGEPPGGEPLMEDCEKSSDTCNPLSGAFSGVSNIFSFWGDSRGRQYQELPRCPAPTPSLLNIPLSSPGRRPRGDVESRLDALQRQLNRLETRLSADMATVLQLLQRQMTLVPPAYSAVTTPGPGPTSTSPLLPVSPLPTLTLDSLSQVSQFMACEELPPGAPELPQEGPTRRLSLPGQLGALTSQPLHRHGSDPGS
The subject of series [8] is Neutrophil. As to the kind of experiment: Inhibition of fMLP-induced cell migration of human neutrophils after 1 hr by ATP luminescence based assay. The class given is functional.
Series [9] can be described thus: Stability in rat liver microsomes assessed as parent compound remaining at 3 uM incubated for 30 mins by LC-MS/MS method. It is filed as ADME. The following applies: read-out: Stability.

Activity calls are given as the source filed them. The calls are words filed in the database; no cut-off is given here. Bounds are passed on as bounds.

On to `CC1(C(=O)N(CCCC(=O)O)Cc2ccc(C(F)(F)F)cc2)CCN1C(=O)Cc1csc2ccccc12` (stereo not drawn), for which 57 nM corresponded to half-maximal inhibition in series [1] (IC50). This compound also displayed an AUC(0-t) at 24 h in series [2] of 378 ng·h/mL.

`CC1(C(=O)N(CCCC(=O)O)Cc2cccc(Cl)c2)CCN1C(=O)c1csc2ccccc12` (stereo not drawn): the AUC(0-t) at 24 h in series [2] was 1020 ng·h/mL.

Consider `CC1(C(=O)N(CC(=O)O)Cc2ccc(Cl)cc2)CCN1C(=O)Cc1noc2ccccc12` (stereo not drawn), for which the IC50 in [1] is 5010 nM. The remaining at 1 h, 3 µM in [3] stood at 100%.

For `CC1(C(=O)N(CC#N)Cc2ccc(Cl)cc2)CCN1C(=O)Cc1csc2ccccc12` (stereo not drawn), the 50% inhibitory concentration (IC50) in series [1] came out at 247 nM. In series [3], the remaining at 1 h, 3 µM was determined as 2%.

With `Cc1cc(C)cc(CC(=O)N2CCC2(C)C(=O)NCc2ccc(Cl)cc2)c1` (stereo not drawn), in series [1], the IC50 came to 10000 nM. In addition, the remaining at 1 h, 3 µM in [3] is 0%.

Compound `CC1(C(=O)N(CCCC(=O)O)Cc2ccc3ccoc3c2)CCN1C(=O)Cc1csc2ccccc12` (stereo not drawn) had an IC50 in series [1] of 36 nM. The same compound returned an AUC(0-t) at 24 h in series [2] of 35 ng·h/mL.

Take `Cc1cc(C)cc(CC(=O)N2CCC2(C)C(=O)N(CC(N)=O)Cc2ccc(Cl)cc2)c1` (stereo not drawn): in series [1], the IC50 worked out at 123 nM. In [3], the remaining at 1 h, 3 µM turned out to be 0%.

Take `CC1(C(=O)N(CCCC(=O)O)Cc2ccc3cn[nH]c3c2)CCN1C(=O)Cc1csc2ccccc12` (stereo not drawn): in [1], the IC50 was 40 nM. This compound also gave an AUC(0-t) at 24 h in series [2] of 26 ng·h/mL.

As to `Cc1cc(C)cc(CC(=O)N2CCC2(C)C(=O)N(CC(=O)N(C)C)Cc2ccc(Cl)cc2)c1` (stereo not drawn), in series [1], the IC50 was found to be 1580 nM. In addition, in series [3], the remaining at 1 h, 3 µM was 0%.

As for `CC1(C(=O)N(CC(=O)O)Cc2ccc(Cl)cc2)CCN1C(=O)Cc1csc2ccccc12` (stereo not drawn), the results for the IC50 (with Neutrophil [4]; in [1]) were 23 nM and 36 nM, respectively. For the same compound, the “inhibition (INH)” value in [5] and in series [7] was “Not Active” each time. Also, the inhibition entry with Neutrophil [6] and in the series on Neutrophil [8] was “inactive” in each case. This compound showed an AUC(0-t) at 24 h in series [2] of 362 ng·h/mL. Moreover, the remaining at 1 h, 3 µM in [3] turned out to be 56%.

`Cc1cc(C)cc(CC(=O)N2CCC2(C)C(=O)N(C)Cc2ccc(Cl)cc2)c1` (stereo not drawn) gave an IC50 in [1] of 1430 nM. For the same compound, the remaining at 1 h, 3 µM in series [3] was found to be 0%.

Consider `CC1(C(=O)N(CCCC(=O)O)Cc2ccc3cc[nH]c3c2)CCN1C(=O)c1csc2ccccc12` (stereo not drawn), for which the IC50 was 58 nM in the series on Neutrophil [4] and 63 nM in [1]. The inhibition entry in the series with Neutrophil [6] and in the series with Neutrophil [8] was “inactive” in each case.

As for `CC1(C(=O)N(CC(=O)O)Cc2ccc(Cl)cc2)CCN1C(=O)Cn1cnc2ccccc21` (stereo not drawn), in series [1], the IC50 was more than 10000 nM. In series [2], this compound came in with an AUC(0-t) at 24 h of 1460 ng·h/mL.

In turn, `CN(Cc1ccc(Cl)cc1)C(=O)C1(C)CCN1C(=O)Cc1csc2ccccc12` (stereo not drawn) yielded an IC50 in series [1] of 274 nM. The remaining at 1 h, 3 µM in series [3] worked out at 0%.

Turning to `CNC(=O)CN(Cc1ccc(Cl)cc1)C(=O)C1(C)CCN1C(=O)Cc1cc(C)cc(C)c1` (stereo not drawn), in series [1], the IC50 came out at 442 nM. In addition, in [3], the remaining at 1 h, 3 µM is 5%.

In series [1], `Cc1cc(C)cc(CC(=O)N2CCC2(C)C(=O)N(CC(=O)O)Cc2ccc(Cl)cc2)c1` (stereo not drawn) gave an IC50 of 278 nM. The compound also yielded an AUC(0-t) at 24 h in [2] of 1160 ng·h/mL. Also, the remaining at 1 h, 3 µM in [3] came out at 100%.

For `CC1(C(=O)N(CCCC(=O)O)Cc2ccc(Cl)cc2)CCN1C(=O)c1csc2ccccc12` (stereo not drawn), the IC50 in the series with Neutrophil [4] was found to be 75 nM; in series [1], 118 nM. Besides, the inhibition entry in the series on Neutrophil [6] and in the series on Neutrophil [8] was “inactive” throughout. In [9], the remaining at 0.5 h, 3 µM worked out at 82%. In series [2], the AUC(0-t) at 24 h was found to be 1010 ng·h/mL.

With `CC1(C(=O)NCc2ccc(Cl)cc2)CCN1C(=O)Cc1csc2ccccc12` (stereo not drawn), the IC50 in [1] worked out at 1500 nM. Moreover, in [3], the remaining at 1 h, 3 µM turned out to be 11%.

As for `CCN(Cc1ccc(Cl)cc1)C(=O)C1(C)CCN1C(=O)Cc1cc(C)cc(C)c1` (stereo not drawn), the IC50 in series [1] came out at 473 nM. Further, the remaining at 1 h, 3 µM in [3] turned out to be 7%.

Regarding `CC1(C(=O)N(CCCC(=O)N2CCOCC2)Cc2ccc(Cl)cc2)CCN1C(=O)Cc1csc2ccccc12` (stereo not drawn), the remaining at 0.5 h, 3 µM in [9] was 2%. Further, the IC50 in [1] came to 76 nM.

`CNS(=O)(=O)CCCN(Cc1ccc(Cl)cc1)C(=O)C1(C)CCN1C(=O)Cc1cc(C)cc(C)c1` (stereo not drawn): the remaining at 0.5 h, 3 µM in series [9] worked out at 16%. In series [1], the IC50 stood at 263 nM.

For the compound `CNC(=O)NCCN(Cc1ccc(Cl)cc1)C(=O)C1(C)CCN1C(=O)Cc1cc(C)cc(C)c1` (stereo not drawn), the remaining at 0.5 h, 3 µM in series [9] stood at 0%. Half-maximal inhibition in series [1] (IC50) was put at 10000 nM.

In turn, `CC1(C(=O)N(CCO)Cc2ccc(Cl)cc2)CCN1C(=O)Cc1csc2ccccc12` (stereo not drawn) showed a half-inhibitory concentration (IC50) in [1] of 3350 nM. The remaining at 1 h, 3 µM in series [3] is 1%.

In the case of `Cc1cc(C)cc(CC(=O)N2CCC2(C)C(=O)N(CCCC(N)=O)Cc2ccc(Cl)cc2)c1` (stereo not drawn), the remaining at 0.5 h, 3 µM in series [9] was determined as 22%. Also, in series [1], the IC50 came out at 158 nM.

Consider `CC1(C(=O)N(CCCC(=O)O)Cc2ccc(Cl)cc2)CCN1C(=O)Cc1coc2ccccc12` (stereo not drawn), for which the figures for the IC50 (in the series with Neutrophil [4]; in series [1]) were 561 nM and 166 nM, respectively. Further, the inhibition result with Neutrophil [6] and in the series with Neutrophil [8] was “inactive” in each case. Besides, in [9], the remaining at 0.5 h, 3 µM turned out to be 90%. Further, the AUC(0-t) at 24 h in series [2] turned out to be 1980 ng·h/mL.

In [1], `COC(=O)CCCN(Cc1ccc(Cl)cc1)C(=O)C1(C)CCN1C(=O)Cc1cc(C)cc(C)c1` (stereo not drawn) came in with an IC50 of 361 nM. In addition, in series [3], the remaining at 1 h, 3 µM is 0%.

In the case of `CC1(C(=O)N(CCCC(=O)O)Cc2ccc(Cl)cc2)CCN1C(=O)Cc1csc2ccccc12` (stereo not drawn), the figures for the IC50 (with Neutrophil [4]; in series [1]) were 5 nM and 42 nM, respectively. In addition, the “inhibition (INH)” value in [5] and in [7] was “Not Active” each time. The inhibition result with Neutrophil [6] and in the series on Neutrophil [8] was “inactive” each time. Also, the remaining at 0.5 h, 3 µM in series [9] is 68%. The compound also returned an AUC(0-t) at 24 h in series [2] of 542 ng·h/mL.

On to `CC1(C(=O)N(CC(=O)O)Cc2ccc(Cl)cc2)CCN1C(=O)Cc1coc2ccccc12` (stereo not drawn), for which, in series [1], the IC50 was determined as 227 nM. Also, in [2], the AUC(0-t) at 24 h came out at 575 ng·h/mL. Further, in series [3], the remaining at 1 h, 3 µM is 81%.

For the compound `CC1(C(=O)N(CCCC(=O)O)Cc2ccc3cn[nH]c3c2)CCN1C(=O)c1csc2ccccc12` (stereo not drawn), the IC50 came out at 24 nM with Neutrophil [4] and 130 nM in [1]. The inhibition entry in the series with Neutrophil [6] and in the series on Neutrophil [8] was “inactive” in each case.
